Measurements published in publication PMC12948223, “HSP70 Interactome‐Mediated Proteolysis Targeting Chimera (HSP70‐PROTAC) for Ferroptosis‐Driven Cancer Treatment” (Advanced Science, 2025).

What was measured:
Format in all cases: cell-based
GPX1 = target: T1, GPX1 (Homo sapiens, UniProt P07203); experiment: Western blot of GPX1 in HT1080 cells; conditions: 24 h
T1 construct: endogenous in cells; host or cells: HT1080
T1 sequence (P07203 1-203): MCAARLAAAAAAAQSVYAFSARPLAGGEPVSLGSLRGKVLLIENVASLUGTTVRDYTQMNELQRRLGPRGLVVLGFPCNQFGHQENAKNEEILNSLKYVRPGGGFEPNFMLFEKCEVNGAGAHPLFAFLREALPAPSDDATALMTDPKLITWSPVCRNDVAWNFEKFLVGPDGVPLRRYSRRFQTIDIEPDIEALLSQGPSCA

GPX4 [1] = target: T2, GPX4 (Homo sapiens, UniProt P36969); experiment: GPX4 degradation by western blot in MDA-MB-231 cells; design: determine the changes in the endogenous levels of GPX4 by western blot assay; endogenous in cells; conditions: 24 h
T2 sequence (P36969 1-170 isoform P36969-2): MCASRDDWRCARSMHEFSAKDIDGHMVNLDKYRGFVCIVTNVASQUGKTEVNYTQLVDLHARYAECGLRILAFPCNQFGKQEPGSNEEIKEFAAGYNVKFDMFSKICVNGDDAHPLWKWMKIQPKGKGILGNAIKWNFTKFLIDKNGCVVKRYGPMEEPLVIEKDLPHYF
Procedure: (§1) To further confirm this degradation efficacy, an in‐cell western (ICW) assay, a quantitative immunofluorescence cell‐based technique, was performed to quantify the relative expression level of GPX4 after treatment with GDAz‐3 for 24 h. […] Given the promising GPX4 degradation activity of GDAz‐3, we extended our evaluation to additional ferroptosis‐sensitive cell lines, including triple‐negative breast cancer cells (MDA‐MB‐231) and melanoma cells (mouse B16‐F10). […] Based on the observation that GDAz‐3 was particularly effective in HT1080 cells, we selected this cell line for further degradation mechanism and ferroptosis pharmacodynamics studies.
(§2) Cells were seeded at a density of 4 × 10^5 cells well^−1 in 6‐well plates and allowed to incubate overnight. Cells were incubated with the indicated treatments. Thereafter, the cells were collected and lysed with RIPA buffer containing serine protease and phosphatase inhibitors for 30 min on ice. Proteins were quantified by using a BCA protein assay kit (Beyotime). […] Ultimately, the membrane was washed five times, and the antibody‐protein complexes were visualized using an ECL luminescence reagent (Biosharp, Shanghai, China). The relative intensities of the bands were analyzed by ImageJ and normalized to a loading control.

GPX4 [2] = target: T3, GPX4 (Mus musculus, UniProt O70325); experiment: GPX4 degradation by western blot in B16-F10 cells; conditions: 3 µM, 24 h
T3 construct: endogenous in cells; host or cells: B16-F10
T3 sequence (O70325 1-170 isoform O70325-2): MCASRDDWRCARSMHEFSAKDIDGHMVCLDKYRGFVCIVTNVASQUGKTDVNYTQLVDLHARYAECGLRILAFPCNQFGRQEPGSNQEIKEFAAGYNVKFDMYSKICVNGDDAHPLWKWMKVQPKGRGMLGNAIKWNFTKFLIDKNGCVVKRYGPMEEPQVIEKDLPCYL
Procedure: as §1, §2

GPX4 [3] = target: T2, GPX4; experiment: Quantitative proteomics of HT1080 cells; design: determine the changes in the endogenous levels of GPX4 by western blot assay; endogenous in cells; host or cells: HT1080 fibrosarcoma cells, including siRNA-knockdown derivatives; conditions: 2 µM, 18 h
Procedure: The proteomics data were generated by Shanghai Bioprofile Co., Ltd. After treatment with compound GDAz‐3 (2 µM) or DMSO for 18 h, the samples were collected. LC‐MS/MS analysis was conducted using an Orbitrap Astral zoom mass spectrometer paired with a Vanquish Neo UHPLC system (Thermo Fisher Scientific). Peptides from each sample were loaded into a column (50 cm Low‐Load µPAC Neo HPLC Column, Thermo Scientific) at a flow rate of 2.2 µL min^−1. The reversed‐phase high‐performance liquid chromatography (RP‐HPLC) mobile phases consisted of solvent A (0.1% formic acid in water) and solvent B (0.1% formic acid in 80% acetonitrile). Peptide elution was performed over 4.8 min with a linear gradient of buffer B at a flow rate 1.25 µL min^−1. The linear gradient was programmed as follows: 0–0.1 min, an increase from 4% to 6% solvent B; 0.1–1.1 min, from 6% to 12% buffer B; 1.1–4.3 min, from 12% to 25% buffer B; 4.3–6.1 min, from 25% to 45% buffer B; 6.1–6.5 min, from 45% to 99% buffer B; 6.5–8 min, buffer B maintained at 99%. The eluted peptides were subsequently analyzed on a Orbitrap Astral mass spectrometer. The DIA method consisted of a full scan m/z range of 380–980 at resolution 240 000 with AGC target of 500% and 5 ms injection time. […] Full MS scan spectra were recorded in profile mode, whereas DIA scan spectra were collected in centroid mode.

For `COc1ccc(-c2nc(-c3cc(C(F)(F)F)cc(C(F)(F)F)c3)n(Cc3ccc(C(=O)NCCOCCOCCOCCn4cc(COc5ccc(N(C(=O)CCl)C(C(=O)NCCc6ccccc6)c6cccs6)cc5Cl)nn4)cc3)c2-c2ccc(OC)cc2)cc1` (stereo not shown) [GDAz-3, 4-((2-(3,5-bis(trifluoromethyl)phenyl)-4,5-bis(4-methoxyphenyl)-1H-imidazol-1-yl)methyl)-N-(2-(2-(2-(2-(4-((2-chloro-4-(2-chloro-N-(2-oxo-2-(phenethylamino)-1-(thiophen-2-yl)ethyl)acetamido)phenoxy)methyl)-1H-1,2,3-triazol-1-yl)ethoxy)ethoxy)ethoxy)ethyl)benzamide], the “Effect on GPX1 protein” value (GPX1) was “did not show a significant effect”, the GPX4 degradation (GPX4 [1]) was “effectively induce the degradation of GPX4 to varying extents” and the GPX4 level (GPX4 [2]) was “markedly decreased GPX4 level”. The “Proteomics profiling, GPX4 abundance” value (GPX4 [3]) was “clear degradation of GPX4”.
